Data: US12286435B2, “Compound having benzo seven-membered ring structure, preparation method therefor, and use thereof” (BIONNA (BEIJING) MEDICAL TECHNOLOGY CO., LTD., priority 2019, dated 2025)
Where “and” joins values, the source holds several entries; their conditions need not be identical. Equal values may be shown once. Read-outs that look alike come from different tables or passages of the source.

Tests used:
BRD4 BD1 protein = BRD4 BD1 protein (Homo sapiens (Human), UniProt O60885); experiment: Fluorescence polarization binding affinity (Ki) with BRD4 BD1 protein
BRD4 BD2 protein = BRD4 BD2 protein (Homo sapiens (Human), UniProt O60885); experiment: Fluorescence polarization binding affinity (Ki) with BRD4 BD2 protein
[1] = fluorescence polarization, Ki calculated from IC50

SMILES | Ki (BRD4 BD1 protein; [1]) [nM] | Ki (BRD4 BD2 protein; [1]) | Ki (BRD4 BD1 protein) [nM] | Ki (BRD4 BD2 protein) [nM]
Cc1nnn2c1-c1ccc(C3=CCN(C(C)C)CC3)cc1[C@@H](Nc1cccc(Cl)c1)CC2 [RE10 (S), (7S)—N-(3-chlorophenyl)-9-(1-isopropyl-1,2,3,6-tetrahydropyridin-4-yl)-1-methyl-6,7-dihydro-5H-benzo[c][1,2,3]triazolo[1,5-a]azepin-7-amine 2,2,2-trifluoroacetate] | 884 | 177 nM | – | –
COc1ccc2c(c1)C(Nc1ccc(Cl)cc1)CCc1onc(C)c1-2 (stereo not shown) [FA02, N-(4-chlorophenyl)-8-methoxy-1-methyl-5,6-dihydro-4H-benzo[6,7]cyclohepta[1,2-d]isoxazol-6-amine] | 58.3 | 37.1 nM | – | –
Cc1nnn2c1-c1ccc(C3=CCNCC3)cc1C(Nc1ccc(C#N)cc1)CC2 (stereo not shown) [LC128, 4-((1-methyl-9-(1,2,3,6-tetrahydropyridin-4-yl)-6,7-dihydro-5H-benzo[c][1,2,3]triazolo[1,5-a]azepin-7-yl)amino)benzonitrile 2,2,2-trifluoroacetate] | 467 | 56.2 nM | – | –
Cc1nnn2c1-c1ccc(C3=CCN(C4CCCC4)CC3)cc1C(Nc1cccc(S(C)(=O)=O)c1)CC2 (stereo not shown) [BI55, 9-(1-cyclopentyl-1,2,3,6-tetrahydropyridin-4-yl)-1-methyl-N-(3-(methylsulfonyl)phenyl)-6,7-dihydro-5H-benzo[c][1,2,3]triazolo[1,5-a]azepin-7-amine 2,2,2-trifluoroacetate] | 3100 | 116 nM | – | –
CC(=O)N1CC=C(c2ccc3c(c2)C(N(C(C)=O)c2cccc(Cl)c2)CCn2nnc(C)c2-3)CC1 (stereo not shown) [LD13] | – | – | 944 | 1740
Cc1nnn2c1-c1ccc(C3=CCNCC3)cc1C(Nc1cccc(C#N)c1)CC2 (stereo not shown) [LC75, 3-((1-methyl-9-(1,2,3,6-tetrahydropyridin-4-yl)-6,7-dihydro-5H-benzo[c][1,2,3]triazolo[1,5-a]azepin-7-yl)amino)benzonitrile 2,2,2-trifluoroacetate] | 2290 | 116 nM | – | –
Cc1nnn2c1-c1ccc(C3=CCN(C4CCCC4)CC3)cc1C(Nc1cccc(Cl)c1F)CC2 (stereo not shown) [RD179, N-(3-chloro-2-fluorophenyl)-9-(1-cyclopentyl-1,2,3,6-tetrahydropyridin-4-yl)-1-methyl-6,7-dihydro-5H-benzo[c][1,2,3]triazolol[1,5-a]azepin-7-amine 2,2,2-trifluoroacetate] | 2810 | 32.6 nM | – | –
Cc1nnn2c1-c1ccc(C3=CCN(C4CCCC4)CC3)cc1C(Nc1ccc(F)c(Cl)c1)CC2 (stereo not shown) [WYA10, N-(3-chloro-4-fluorophenyl)-9-(1-cyclopentyl-1,2,3,6-tetrahydropyridin-4-yl)-1-methyl-6,7-dihydro-5H-benzo[c][1,2,3]triazolo[1,5-a]azepin-7-amine 2,2,2-trifluoroacetate] | 719 | 20.7 nM and 47.4 nM | – | –
Cc1nnn2c1-c1ccc(-c3cnn(C)c3)cc1C(Nc1cc(F)cc(Cl)c1)CC2 (stereo not shown) [BJ193, N-(3-chloro-5-fluorophenyl)-1-methyl-9-(1-methyl-1H-pyrazol-4-yl)-6,7-dihydro-5H-benzo[c][1,2,3]triazolo[1,5-a]azepin-7-amine] | 28.3 | 8.4 nM | – | –
Cc1nnn2c1-c1ccc(C3=CCN(C4CCC4)CC3)cc1C(Nc1cccc(S(C)(=O)=O)c1)CC2 (stereo not shown) [BI61, 9-(1-cyclobutyl-1,2,3,6-tetrahydropyridin-4-yl)-1-methyl-N-(3-(methylsulfonyl)phenyl)-6,7-dihydro-5H-benzo[c][1,2,3]triazolo[1,5-a]azepin-7-amine 2,2,2-trifluoroacetate] | 3200 | 148 nM | – | –
CCC(=O)N1CC=C(c2ccc3c(c2)C(Nc2ccc(Cl)cc2)CCn2nnc(C)c2-3)CC1 (stereo not shown) [LD14, 1-(4-(7-((4-chlorophenyl)amino)-1-methyl-6,7-dihydro-5H-benzo[c][1,2,3]triazolo[1,5-a]azepin-9-yl)-3,6-dihydropyridin-1(2H)-yl)propan-1-one] | 14.3 | 6.14 nM | – | –
Cc1nnn2c1-c1ccc(C3=CCNCC3)cc1C(Nc1ccc(O)cc1)CC2 (stereo not shown) [LC117, 4-((1-methyl-9-(1,2,3,6-tetrahydropyridin-4-yl)-6,7-dihydro-5H-benzo[c][1,2,3]triazolo[1,5-a]azepin-7-yl)amino)phenol 2,2,2-trifluoroacetate] | 2370 | 116 nM | – | –
Cc1nnn2c1-c1ccc(C3=CCNCC3)cc1C(Nc1ccccc1C#N)CC2 (stereo not shown) [RC116, 2-((1-methyl-9-(1,2,3,6-tetrahydropyridin-4-yl)-6,7-dihydro-5H-benzo[c][1,2,3]triazolo[1,5-a]azepin-7-yl)amino)benzonitrile 2,2,2-trifluoroacetate] | 1000 | 115 nM | – | –
Cc1nnn2c1-c1ccc(C3=CCN(C)CC3)cc1C(Nc1ccccc1Cl)CC2 (stereo not shown) [RD06, N-(2-chlorophenyl)-1-methyl-9-(1-methyl-1,2,3,6-tetrahydropyridin-4-yl)-6,7-dihydro-5H-benzo[c][1,2,3]triazolo[1,5-a]azepin-7-amine 2,2,2-trifluoroacetate] | 1030 | 56.4 nM | – | –
Cc1cc(NC2CCn3nnc(C)c3-c3ccc(C4=CCNCC4)cc32)n(C)n1 (stereo not shown) [BJ28, N-(1,3-dimethyl-1H-pyrazol-5-yl)-1-methyl-9-(1,2,3,6-tetrahydropyridin-4-yl)-6,7-dihydro-5H-benzo[c][1,2,3]triazolo[1,5-a]azepin-7-amine 2,2,2-trifluoroacetate] | 1830 | 250 nM | – | –
Cc1nnn2c1-c1ccc(C3=CCNCC3)cc1C(Nc1cccc(CO)c1)CC2 (stereo not shown) [RD21, (3-((1-methyl-9-(1,2,3,6-tetrahydropyridin-4-yl)-6,7-dihydro-5H-benzo[c][1,2,3]triazolo[1,5-a]azepin-7-yl)amino)phenyl)methanol 2,2,2-trifluoroacetate] | 1530 | 90.4 nM | – | –
Cc1nnn2c1-c1ccc(C3=CCNCC3)cc1C(N(C=O)c1cccc(Cl)c1)CC2 (stereo not shown) [LC193, N-(3-chlorophenyl)-N-(1-methyl-9-(1,2,3,6-tetrahydropyridin-4-yl)-6,7-dihydro-5H-benzo[c][1,2,3]triazolo[1,5-a]azepin-7-yl)formamide 2,2,2-trifluoroacetate] | > 4000 | 698 nM | – | –
Cc1nnn2c1-c1ccc(-c3cnn(C)c3)cc1C(Nc1cccc(CCN(C)C)c1)CC2 (stereo not shown) [LC101, N-(3-(2-(dimethylamino)ethyl)phenyl)-1-methyl-9-(1-methyl-1H-pyrazol-4-yl)-6,7-dihydro-5H-benzo[c][1,2,3]triazolo[1,5-a]azepin-7-amine] | 89 | 13.6 nM | – | –
CCN1CC=C(c2ccc3c(c2)C(Nc2cc(Cl)ccc2F)CCn2nnc(C)c2-3)CC1 (stereo not shown) [RD123, N-(5-chloro-2-fluorophenyl)-9-(1-ethyl-1,2,3,6-tetrahydropyridin-4-yl)-1-methyl-6,7-dihydro-5H-benzo[c][1,2,3]triazolo[1,5-a]azepin-7-amine 2,2,2-trifluoroacetate] | – | – | 1090 | 40.8
Cc1nnn2c1-c1ccc(C3=CCN(C(C)C)CC3)cc1C(Nc1ccc(F)c(Cl)c1)CC2 (stereo not shown) [BI24, N-(3-chloro-4-fluorophenyl)-9-(1-isopropyl-1,2,3,6-tetrahydropyridin-4-yl)-1-methyl-6,7-dihydro-5H-benzo[c][1,2,3]triazolo[1,5-a]azepin-7-amine 2,2,2-trifluoroacetate] | 5410 | 86.4 nM | – | –
